Measurements taken from patent US20040009921A1, “Methods and compositions for the treatment of cancer” (Allergan, Inc., priority 2002, published 2004).

How the values were obtained:
[1] = system: β-catenin-mediated gene transactivation (TCF/LEF reporter Topflash); test: Topflash reporter gene assay in HEK293 cells and stable lines RBC, CAT; type: cell-based, human
Experimental: (§1) Cultured cells were transfected with 100 ng of reporter gene Topflash® together with expression vectors indicated under each graph. […] (A) Data from HEK293 cells co-transfected with wild type or mutant β-catenin (200 ng) and RXRα (20 ng). (B) CAT, a stable cell line that overexpresses β-catenin (left panel). RBC, a stable cell line that overexpresses both RXRα and β-catenin. (C) SW480, a colorectal cancer cell line, was transfected with 100 ng of Topflash®. The amount of RXRα cotransfected was indicated below the X axis. Reporter activity on the Y axis is expressed as either Luciferase Unit or percentage of activity in cells transfected with Topflash® alone.
For transfection of the HEK293 cell line, cells were seeded at a density of 50,000 cells per well in 24-well plates coated with poly-D-Lysine (Becton Dickinson). After 24 hours, the luciferase-based reporter plasmids and expression vectors were cotransfected into cells using Fugene according to the manufacturer's instruction (Roche Applied Science). To monitor the efficiency of transfection, either 15 ng of phRG-TK Renilla or 100 ng of CMX-LacZ DNA were cotransfected. […] Harvested cells were lysed, and luciferase activity was measured as previously described (de Wet, J. R., Wood, K. V., DeLuca, M., Helinski, D. R., Subramani, S. (1987) Mol. Cell. Biol. 7, 725-737). In cells transfected with the LacZ control gene, β-galactosidase activity was measured by standard colorimetric assays. Renilla reniformis […] activity was determined using the Dual-Luciferase Reporter 100 Assay System (Promega Corporation, 2800 Woods Hollow Road, Madison Wis. USA 53711). The experimental reporter gene activity was normalized against either β-galactosidase or Renilla GFP activity. Values represent the mean +/− SEM of quadruplicate determinations.
To investigate whether RXR and its ligands affect β-catenin-mediated gene transactivation, the APC-positive human HEK293 cells were transfected with the reporter gene Topflash®. This reporter gene contains multiple copies of responsive elements for the DNA-binding transcription activators, TCF/LEF, upstream of the basic luciferase reporter gene construct tk-Luc. The tk-Luc portion of he reporter plasmid consists of a minimal gene promoter from HSV tk gene and a coding sequence for luciferase. Transactivation of this reporter by TCF/LEF can be affected by endogenous as well as overexpressed β-catenin, which interacts with TCF/LEF as a co-activator.

[2] = system: β-catenin-driven gene transcription in APC-negative colorectal cancer cell line SW480; test: Topflash reporter gene assay in SW480 cells; type: cell-based
Experimental: as §1
For transfection of the HEK293 cell line, cells were seeded at a density of 50,000 cells per well in 24-well plates coated with poly-D-Lysine (Becton Dickinson). […] Harvested cells were lysed, and luciferase activity was measured as previously described (de Wet, J. R., Wood, K. V., DeLuca, M., Helinski, D. R., Subramani, S. (1987) Mol. Cell. Biol. 7, 725-737). In cells transfected with the LacZ control gene, β-galactosidase activity was measured by standard colorimetric assays. Renilla reniformis […] activity was determined using the Dual-Luciferase Reporter 100 Assay System (Promega Corporation, 2800 Woods Hollow Road, Madison Wis. USA 53711). […]

β-galactosidase = test: Western blotting of β-galactosidase control (LacZ) in HEK293 cells; type: cell-based; settings: HEK293 cotransfected with LacZ, 0.1 μM
Experimental: (A) Western blotting analysis of HEK293 cells transfected with a combination of expression vectors for LacZ (2 μg), V5-tagged β-catenin(4 μg), and Flag-tagged RXRα (2 μg) as indicated below the gels. […] RXRα protein was measured using an HRP-conjugated mouse monoclonal antibody against the Flag tag. […] Endogenous and overexpressed β-catenin were detected using a rabbit polyclonal antibody as indicated by “Total” whereas overexpressed β-catenin was analyzed using a mouse monoclonal antibody against the V5 tag. Endogenous and overexpressed RXRα were detected by a rabbit polyclonal antibody against RXRα, whereas overexpressed RXRα was determined by an HRP-conjugated mouse monoclonal antibody against the Flag tag. (D) Western blotting analysis of HEK293 cells transfected with a fixed amount of β-catenin (4 μg) plus an increasing amount of RXRα as indicated at the top.
HEK293 cells were seeded at a density of 2×10 per dish were seeded into 100-mm dishes and cultured overnight in DMEM containing 10% FBS. Cells were transfected with 1-4 μg of various cDNA or parental expression vectors (8 μg of DNA in total) using Lipofectamine®. […]
Total cell lysates were homogenized by passing through a QIAshredder® (Qiagen) and cleared from insoluble materials by centriftigation at 12,000 g. Protein concentration was determined using a Bradford total protein assay kit (Bio-Rad). […]

CC(/C=C/[C@@H]1C[C@]1(C)c1ccc2c(c1)C(C)(C)CCC2(C)C)=C\C(=O)O [AGN 4204]
Topflash reporter activity from endogenous β-catenin ([1]; HEK293, endogenous β-catenin, 0.1 μM, 17 hours): moderately reduced | ΔNβ-catenin mutant activity in transactivating Topflash ([1]; HEK293, ΔNβ-catenin in the presence of RXRα): significantly impaired | decrease in reporter activity ([1]; HEK293 cotransfected with β-catenin and RXRα, 0.1 μM, 17 hours): 90% | decrease in reporter activity ([1]; stable line CAT overexpressing only β-catenin, 0.1 μM, 17 hours): 30% | decrease in reporter activity ([1]; stable line RBC expressing β-catenin and RXRα, 0.1 μM, 17 hours): decrease in the reporter activity was also observed | reporter gene activity ([2]; SW480, low levels of endogenous RXRs only): not sufficient to produce an effect | reporter gene activity ([2]; SW480 cotransfected with RXRα, 0.1 μM, 17 hours): a decrease in reporter gene activity | expression of β-galactosidase protein from LacZ control (β-galactosidase): not significantly affected
